Assay results as given in patent US7455860B2, “Dietary supplement formulation for controlling inflammation and cancer” (Laila Nutraceuticals, priority 2005, dated 2008).
Several values for one entry are separate records, joined by “and”; a condition that tells them apart may be missing. Identical values can stand only once.

Assays:
[1] = test system: Freund's Adjuvant-Induced Arthritis; test: Freund's Adjuvant-Induced Arthritis in Wistar Albino rats (paw volume by Plethysmograph); assay type: in vivo
Procedure: Effect of 5-LOXIN compositions on Freund's Adjuvant-Induced Arthritis in Winstar Albino rats: Wistar Albino rats of either sex were selected randomly and divided into groups containing 6 rats (3 male and 3 female) each. The rats of treatment groups were administered orally a suspension of 5-LOXIN (15 mg/kg, p.o.) or glucosamine salt (135 mg/kg, p.o.) or curcuminoids (20 mg/kg, p.o.) or ginger (3 mg/kg, p.o.) or one fifth of a formulation containing unit doses of all the four ingredients [formulation I: 5-LOXIN (15 mg)+glucosamine (135 mg)+curcuminoids DP 95% (20 mg)+Ginger DP 15% total pungent compounds (3 mg)]or prednisolone (10 mg/kg, p.o.) in 0.5% CMC, for 30 days. The control group received 0.5% CMC. Following the drug treatment all animals were challenged, on 31st day, with 50 μl of complete Freund's adjuvant injection to the sub plantar region of right hind paw. The paw volume was measured before (V0) and after the injection of Freund's adjuvant at the end of 30, 60, 120, 180, 240 and 360 min by Plethysmograph. The paw oedema was measured everyday upto 17th day.

degenerative arthritis = settings: treatment group; 20% in placebo group; cited from earlier work

Row | Structure (SMILES) | % protection ([1]; day 13, against control group mean oedema 0.478) [%] | Day-13 E, ME (mean oedema of the group) ([1]; group mean, oral treatment for 30 days) [mL] | Paw Volume After Freund's Adjuvant, Day-13 E (oedema) ([1]; individual rat, Day-13 PV minus 0 hr, oral treatment for 30 days, hydrochloride) | Paw Volume After Freund's Adjuvant, Day-13 PV ([1]; individual rat, oral treatment for 30 days, adjuvant on 31st day, read on day 13, dose per sample in table, hydrochloride) | Improvement in degenerative arthritis (degenerative arthritis) [%]
1 | Cl.N[C@H]1C(O)O[C@H](CO)[C@@H](O)[C@@H]1O (some centres unmarked) [Glucosamine, glucosamine hydrochloride] | 37.94 | 0.30 | 0.37 mL and 0.3 mL and 0.22 mL | 1.56 mL and 1.59 mL and 1.53 mL | 
2 | CS(C)(=O)=O [MSM, Methylsulfonylmethane] |  |  |  |  | 80
